From patent US10899741B2, “3,4-bipyridyl pyrazole derivative, and preparation method therefor and medical application thereof” (Jiangsu Hengrui Medicine Co., Ltd., priority 2016, dated 2021)

Assays:
recombinant human VEGFR2 = recombinant human VEGFR2 (Homo sapiens (Human), UniProt P35968); experiment: Inhibition of VEGFR2 kinase activity (Z'-LYTE kit); type: biochemical; details: ATP 50 μM, 25° C. 2 hours
Method: The inhibition effect of VEGFR2 kinase activity in vitro was determined by the following method.
The inhibition effect of the compounds of the present invention on VEGFR2 kinase activity was determined by the following experimental method:
Z'-LYTEC® Kinase Assay Kit—Tyrosine 1 Peptide (PV3190, Invitrogen) was used to assay enzyme activity. 5 μl of recombinant human VEGFR2 enzyme (PV3660, Invitrogen) and VEGFR2 substrate polypeptide (in the reaction system, the final concentration of enzyme was 0.14 ng/μL, and the final concentration of substrate was 2 μM) formulated with reaction buffer (50 mM HEPES pH7.5, 10 mM MgCl2, 1 mM EGTA, 0.05% BRIJ-35), 2.5 μl of a 2-fold gradient dilution of the compounds dissolved in 5% DMSO, and 2.5 μL of ATP solution (the final concentration of ATP was 50 μM) were added successively to a 384-well plate (4513, Corning). After reaction at 25° C. for 2 hours, 5 μL of detection reagent was added to each well. After the plate was placed at 25° C. for 1 hour, the fluorescence signal values at emission wavelengths of 445 nm and 520 nm were measured with a NOVOstar (BMG) multi-function microplate reader. The IC50 values of the compounds for enzyme inhibition were calculated using Graphpad prism software based on each concentration of the compound and the corresponding signal value thereof.

p38α kinase = p38α kinase (Homo sapiens (Human), UniProt Q16539); experiment: Inhibition of p38α kinase activity (ADP-Glo kit); type: biochemical; details: ATP 50 μM, 27° C. 2.5 hours
Chain of p38α kinase (Q16539 whole entry): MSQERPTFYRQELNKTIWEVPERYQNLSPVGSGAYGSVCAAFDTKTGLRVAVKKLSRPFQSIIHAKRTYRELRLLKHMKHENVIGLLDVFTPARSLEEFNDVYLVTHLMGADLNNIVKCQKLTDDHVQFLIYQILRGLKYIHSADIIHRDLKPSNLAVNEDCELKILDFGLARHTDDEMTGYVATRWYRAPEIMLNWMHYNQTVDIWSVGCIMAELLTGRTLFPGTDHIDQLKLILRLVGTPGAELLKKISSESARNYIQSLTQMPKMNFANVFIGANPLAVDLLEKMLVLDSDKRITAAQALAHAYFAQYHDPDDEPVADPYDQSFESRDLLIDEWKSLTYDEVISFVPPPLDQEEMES
Method: The inhibition of p38α kinase activity in vitro was determined by the following method.
The inhibition effect of the compounds of the present invention on p38α kinase activity was determined by the following experimental method:
p38α kinase assay kit (V9591, Promega) was used to assay enzyme activity. 2 μl of enzyme solution (the final concentration of enzyme in the reaction system was 0.5 ng/μL) formulated with reaction buffer (40 mM Tris pH 7.5, 20 mM MgCl2, 0.1 mg/ml BSA), 1 μl of a 3-fold gradient dilution of the compounds dissolved in 5% DMSO, and 2 μl of a mixed solution of ATP and p38 substrate peptide (the final concentration of ATP was 50 μM, and the final concentration of substrate was 0.2 μg/μL) were added successively to a 384-well plate (4514, Corning). After reaction at 27° C. for 2.5 hours, 5 μl of ADP-Glo solution in the kit was added to each well, then the plate was placed at 27° C. for 40 minutes. 10 μl of kinase assay reagent was then added to each well, then the plate was placed at 27° C. for 30 minutes. The chemiluminescence signal values were measured with a Victor 3 (PerkinElmer) multi-function microplate reader. The IC50 values of the compounds on enzyme inhibition were calculated using Graphpad prism software based on each concentration of the compound and the corresponding signal value thereof.

[1] = tested on: Smad signaling pathway of TGFβRI; experiment: Inhibition of Smad signaling pathway of TGFβRI (3TP-lux luciferase reporter in HepG2 cells); type: cell-based; details: HepG2, 3TP-lux plasmid, 18 hours; for IC50: Homo sapiens
Method: The inhibition effect of the compounds of the present invention on Smad signaling pathway of TGFβRI was determined by the following in vitro test.
The inhibition effect of the compounds of the present invention on Smad signaling pathway of TGFβRI was determined by the following experimental method:
On a 96-well plate, 100 μL of HepG2 cell (TCHu 72, Cell Bank of Typical Culture Collection Committee of Chinese Academy of Sciences) was seeded on an EMEM medium containing 10% FBS (42360-099, Gibco) in each well. The seeding density is 2.5×10^4 cells/well. The cells were incubated overnight at 37° C., in 5% CO2. Each well was replaced with fresh EMEM medium containing 10% FBS. 0.1 μg of 3TP-lux plasmid (11767, Biovector Science Lab, Inc.) was transfected in each well. The cells were further incubated for 24 hours at 37° C., in 5% CO2. Each well was replaced with 90 μL of EMEM medium containing 0.5% FBS, then the cells were starved for 6 hours. The compounds were formulated as a 20 mM stock solution, which was diluted in gradient to a 400× concentration with 100% DMSO, and further 40-fold diluted with EMEM containing 0.5% FBS. The cell culture plate was taken out, then 10 μl of diluted compound or control (0.25% DMSO) was added to each well respectively. The plate was shaken gently, then incubated for 18 hours in an incubator at 37° C., in 5% CO2. Finally, 100 μl of detection reagent ONE-Glo™ Luciferase Assay (E6110, Promega) was added to each well, and the plate was placed in dark at room temperature for 10 minutes. The chemiluminescence signal values were measured with a Victor 3.0 (PerkinElmer). The IC50 values of the compounds were calculated using Graphpad Prism software based on each concentration of the compound and the corresponding signal value thereof.

[2] = Pharmacokinetics assay in rats after intragastrical administration; type: in vivo; details: both sexes, Sprague-Dawley, rat, plasma, po, SD rats; for Vd/F / AUC / CL/F / half-life / MRT: 2.0 mg/kg; for Vd/F: read-out: Apparent distribution volume Vz/F; for AUC: read-out: Area under curve AUC; for CL/F: read-out: Clearance CLz/F; for half-life: read-out: Half-life T1/2 (converted); for MRT: read-out: Residence time MRT
Method: Rats were used as test animals. The drug concentration in plasma at different time points was determined by LC/MS/MS method after intragastrical administration of the compounds of Examples 1 and 2 to rats. The pharmacokinetic behavior of the compounds of the present invention was studied and evaluated in rats.
Eight healthy adult Sprague-Dawley (SD) rats (half male and half female) were purchased from SINO-BRITISH SIPPR/BK LAB. ANIMAL LTD., CO, with Certificate No.: SCXK (Shanghai) 2008-0016, and equally divided into 2 groups (4 rats per group).
A certain amount of the test drug was weighed, and added with 5% by volume of DMSO, 5% by volume of Tween 80, and 90% by volume of physiological saline to prepare a 0.2 mg/mL colorless, clear and transparent solution.
After an overnight fast, SD rats were administered intragastrically the test drugs at an administration dosage of 2.0 mg/kg and an administration volume of 10.0 mL/kg.
The rats were intragastrically administered the compounds of Examples 1 and 2. 0.2 mL of blood was taken from the orbital sinus before administration and at 0.5, 1.0, 2.0, 4.0, 6.0, 8.0, 11.0 and 24.0 hours after administration. The samples were stored in heparinized tubes, and centrifuged for 10 minutes at 4° C. at 3,500 rpm to separate the blood plasma. The plasma samples were stored at −20° C. The rats were fed 2 hours after administration.
The content of the test compounds in the plasma of rats after intragastrical administration of the test drugs at different concentrations was determined: 25 μL of rat plasma at each time after administration was taken, added with 30 μL (100 ng/mL) of the internal standard solution of camptothecin and 225 μL of acetonitrile, vortex-mixed for 5 minutes, and centrifuged for 10 minutes (3600 rpm). 5.0 μL of the supernatant was taken from the plasma samples for LC/MS/MS analysis.

Chain of recombinant human VEGFR2 (P35968 20-1356): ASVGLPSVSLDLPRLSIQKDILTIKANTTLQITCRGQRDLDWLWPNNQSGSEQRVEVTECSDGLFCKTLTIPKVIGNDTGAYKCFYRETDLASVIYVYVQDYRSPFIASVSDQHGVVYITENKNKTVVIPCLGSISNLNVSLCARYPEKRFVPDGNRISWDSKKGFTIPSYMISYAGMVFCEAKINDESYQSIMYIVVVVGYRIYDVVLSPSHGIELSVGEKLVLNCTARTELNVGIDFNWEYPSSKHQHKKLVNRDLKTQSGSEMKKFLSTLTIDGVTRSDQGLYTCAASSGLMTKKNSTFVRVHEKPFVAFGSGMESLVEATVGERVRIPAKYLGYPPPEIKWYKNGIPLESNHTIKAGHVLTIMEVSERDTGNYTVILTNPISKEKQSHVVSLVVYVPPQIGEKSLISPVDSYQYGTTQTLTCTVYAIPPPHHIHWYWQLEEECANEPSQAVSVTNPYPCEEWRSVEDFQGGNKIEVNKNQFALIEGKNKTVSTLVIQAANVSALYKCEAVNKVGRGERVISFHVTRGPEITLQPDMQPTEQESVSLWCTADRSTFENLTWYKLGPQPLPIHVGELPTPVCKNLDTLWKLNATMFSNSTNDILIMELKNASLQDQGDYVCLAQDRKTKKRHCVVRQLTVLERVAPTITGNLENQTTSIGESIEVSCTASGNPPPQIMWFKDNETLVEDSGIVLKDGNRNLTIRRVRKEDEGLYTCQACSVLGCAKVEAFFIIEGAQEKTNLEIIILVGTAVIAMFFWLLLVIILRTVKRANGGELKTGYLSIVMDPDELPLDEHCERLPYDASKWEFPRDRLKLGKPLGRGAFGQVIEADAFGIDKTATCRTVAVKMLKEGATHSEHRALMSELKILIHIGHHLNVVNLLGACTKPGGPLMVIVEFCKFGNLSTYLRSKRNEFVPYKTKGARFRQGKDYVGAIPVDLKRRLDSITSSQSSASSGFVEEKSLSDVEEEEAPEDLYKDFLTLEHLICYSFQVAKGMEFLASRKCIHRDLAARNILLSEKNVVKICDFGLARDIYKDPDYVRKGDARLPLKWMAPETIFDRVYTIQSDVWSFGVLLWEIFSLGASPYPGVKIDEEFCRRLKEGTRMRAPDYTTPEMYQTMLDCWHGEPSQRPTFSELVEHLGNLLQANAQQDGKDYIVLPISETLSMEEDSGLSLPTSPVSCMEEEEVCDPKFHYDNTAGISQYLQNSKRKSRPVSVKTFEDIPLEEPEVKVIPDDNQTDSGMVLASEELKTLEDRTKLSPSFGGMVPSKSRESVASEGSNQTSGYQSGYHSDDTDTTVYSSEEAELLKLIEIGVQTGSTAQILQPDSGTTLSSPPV

| Structure (SMILES) | IC50 (recombinant human VEGFR2) | IC50 (p38α kinase) | Maximum inhibition rate (%) [1] | IC50 [1] | Cmax ([2]; 2 mg/kg, heading: Plasma concentration Cmax) | Vd/F [2] | AUC [2] | CL/F [2] | half-life [2] | MRT [2] |
| --- | --- | --- | --- | --- | --- | --- | --- | --- | --- | --- |
| Cc1cccc(-c2nn(C3CCC3)cc2-c2ccnc(-c3ccc(S(C)(=O)=O)cc3)c2)n1 [Example 1, 4-(1-Cyclobutyl-3-(6-methylpyridin-2-yl)-1H-pyrazol-4-yl)-2-(4-(methylsulfonyl)phenyl)pyridine] | 2.5 µM | 2.2 µM | 101% | 0.077 µM | 1.83 ± 0.941 µg/mL | 1.2 ± 0.437 L/kg | 3.27 ± 1.47 µg·h/mL | 0.714 ± 0.312 L/h/kg | 1.23 ± 0.33 h | 1.72 ± 0.21 h |
| Cc1cccc(-c2nn(C3CC3)cc2-c2ccnc(-c3ccc(S(C)(=O)=O)cc3)c2)n1 [Example 2, 4-(1-Cyclopropyl-3-(6-methylpyridin-2-yl)-1H-pyrazol-4-yl)-2-(4-(methylsulfonyl)phenyl)pyridine] | 4.2 µM | 1 µM | 100% | 0.174 µM |  | 0.872 ± 0.536 L/kg | 8.06 ± 5.29 µg·h/mL | 0.32 ± 0.159 L/h/kg | 1.99 ± 0.95 h | 3.06 ± 0.87 h |
